Measurements as given in paper PMC7468280 (Scientific Reports, 2020).
“Also recorded” adds a separate entry of the source. Where two headings read alike, the source gives them in different places. Positions of bridges follow the written chain, without caps; N, C: chain ends. Non-standard residues stand in square brackets, D forms with d. Residues, ends and D or L forms follow the SMILES beside them. No end group written: not given here.

Tests used:
HIV-1BaL [1] = conditions: human colorectal explants, p24 ELISA, mean ± SEM of three independent experiments in triplicate
HIV-1BaL [2] = conditions: read-out: IC50 against HIV-1BaL, TZM-bl cells sustained, peptide 1 h before virus, 48 h culture in presence of drug (sustained), luciferase, mean ± SEM of three independent experiments in triplicate
Stability in human serum = type: in vitro ADME; conditions: 1 mg/ml peptide, 90% human serum in HBSS, 37 °C, HPLC at 220 nm, three replicates (b16 says human plasma)
Experimental: Figure 3 Representation of the percentage of peptide that remains in solution with respect to the initial one at different times. The percentage is calculated by dividing the area (HPLC analysis) at time “t” by the initial area of the peptide in the test conditions. Bar errors represents SEM of three replicates. Software GraphPad Prism 5.0 (https://graphpad-prism.software.informer.com/5.0/) was used.
The stability of E1P47 peptides was studied in human serum, a protease-rich media. Briefly, a concentration of 1 mg/ml of each peptide was incubated with 90% human serum in Hanks Balanced Salt Solution (HBSS) at 37 °C and aliquots of 40 µl were taken at different time-points during 24 h and treated with 200 µl of methanol to immediately precipitate the serum proteins. After 30 min of centrifugation at 4 °C, the supernatant was analysed by HPLC at 220 nm to calculate the content of intact peptide in each sample and by UPLC/MS to identify the main metabolites generated after the enzymatic hydrolysis.

[3] = 90% human serum in Hanks Balanced Salt Solution (HBSS); conditions: 37 °C, up to 24 h
[4] = read-out: IC50 against HIV-1BaL, colorectal explants pulse, peptide 1 h before and 2 h during virus (3 h pulse), washed, 15 days culture without drug
[5] = read-out: IC50 against HIV-1BaL, colorectal explants sustained, peptide before and during virus and throughout 15 days culture (sustained)

| cleaved bond [3] | not cleaved [3] | Compound | IC50 (HIV-1BaL [1]; [4]) | IC50 (HIV-1BaL [1]; [5]) | IC50 (HIV-1BaL [2]) | metabolised at 8 h, 1 mg/ml (Stability in human serum; 8 h, methanol precipitation, read-out: peptide degraded at 8 h) | stability to human plasma/serum proteases (in words) (Stability in human serum; up to 24 h) |
| --- | --- | --- | --- | --- | --- | --- | --- |
|  |  | CC[C@H](C)[C@H](NC(=O)[C@@H](NC(=O)CNC(=O)[C@H](CCCNC(=N)N)NC(=O)[C@H](Cc1c[nH]c2ccccc12)NC(=O)[C@H](Cc1ccccc1)NC(=O)[C@H](CC(=O)O)NC(=O)[C@H](Cc1ccccc1)NC(=O)[C@@H]1CCCN1C(=O)[C@@H](NC(=O)[C@H](CCCCN)NC(=O)[C@H](Cc1c[nH]c2ccccc12)NC(=O)[C@H](CC(C)C)NC(=O)[C@H](Cc1ccc(O)cc1)NC(=O)[C@H](CCC(=O)O)NC(=O)[C@H](CC(C)C)NC(=O)[C@@H](NC(=O)[C@@H](N)Cc1c[nH]c2ccccc12)[C@@H](C)CC)C(C)C)C(C)C)C(N)=O [E1P47] (H-WILEYLWKVPFDFWRGVI-NH2) | 38.5 ± 17.2 µM | 8 ± 4.6 µM | 0.76 ± 0.08 µM | ~50% |  |
|  |  | CC[C@@H](C)[C@@H](N)C(=O)N[C@@H](C(=O)NCC(=O)N[C@H](CCCNC(=N)N)C(=O)N[C@H](Cc1c[nH]c2ccccc12)C(=O)N[C@H](Cc1ccccc1)C(=O)N[C@H](CC(=O)O)C(=O)N[C@H](Cc1ccccc1)C(=O)N1CCC[C@@H]1C(=O)N[C@@H](C(=O)N[C@H](CCCCN)C(=O)N[C@H](Cc1c[nH]c2ccccc12)C(=O)N[C@H](CC(C)C)C(=O)N[C@H](Cc1ccc(O)cc1)C(=O)N[C@H](CCC(=O)O)C(=O)N[C@H](CC(C)C)C(=O)N[C@@H](C(=O)N[C@H](Cc1c[nH]c2ccccc12)C(N)=O)[C@H](C)CC)C(C)C)C(C)C [RE-E1P47] (H-[dI][dV]G[dR][dW][dF][dD][dF][dP][dV][dK][dW][dL][dY][dE][dL][dI][dW]-NH2) | 28.7 ± 23.2 µM | 3.7 ± 1.7 µM |  |  | remained practically unaltered for almost 24 h |
|  |  | CC[C@H](C)[C@H](NC(=O)[C@@H](NC(=O)CNC(=O)[C@@H]1CCCCNC(=O)C[C@H](NC(=O)[C@H](Cc2ccccc2)NC(=O)[C@@H]2CCCN2C(=O)[C@@H](NC(=O)[C@H](CCCCN)NC(=O)[C@H](Cc2c[nH]c3ccccc23)NC(=O)[C@H](CC(C)C)NC(=O)[C@H](Cc2ccc(O)cc2)NC(=O)[C@H](CCC(=O)O)NC(=O)[C@H](CC(C)C)NC(=O)[C@@H](NC(=O)[C@@H](N)Cc2c[nH]c3ccccc23)[C@@H](C)CC)C(C)C)C(=O)N[C@@H](Cc2ccccc2)C(=O)N[C@@H](Cc2c[nH]c3ccccc23)C(=O)N1)C(C)C)C(N)=O [StP1-E1P47] (H-WILEYLWKVPFDFWKGVI-NH2; lactam 12-15) | 33 ± 27.4 µM | 2.8 ± 0.5 µM | 0.11 ± 0.01 µM |  |  |
|  |  | CC[C@H](C)[C@H](NC(=O)[C@@H](NC(=O)CNC(=O)[C@H](CCCNC(=N)N)NC(=O)[C@H](Cc1c[nH]c2ccccc12)NC(=O)[C@H](Cc1ccccc1)NC(=O)[C@H](CC(=O)O)NC(=O)[C@H](Cc1ccccc1)NC(=O)[C@@H]1CCCN1C(=O)[C@@H](NC(=O)[C@@H]1CCCCNC(=O)CC[C@H](NC(=O)[C@H](CC(C)C)NC(=O)[C@@H](NC(=O)[C@@H](N)Cc2c[nH]c3ccccc23)[C@@H](C)CC)C(=O)N[C@@H](Cc2ccc(O)cc2)C(=O)N[C@@H](CC(C)C)C(=O)N[C@@H](Cc2c[nH]c3ccccc23)C(=O)N1)C(C)C)C(C)C)C(N)=O [StP2-E1P47] (H-WILEYLWKVPFDFWRGVI-NH2; lactam 4-8) | 32 ± 15.5 µM | 2.9 ± 0.4 µM | 0.16 ± 0.01 µM |  |  |
| Trp7-K8, major | intact | WILEYLWKVPFDFWKGVI-NH2 |  |  |  |  |  |
| Phe11-D12, major | intact | WILEYLWKVPFDFWRGVI-NH2 |  |  |  |  |  |

| Compound | cleaved bond [3] | not cleaved [3] | IC50 (HIV-1BaL [1]; [4]) | IC50 (HIV-1BaL [1]; [5]) | IC50 (HIV-1BaL [2]) | metabolised at 8 h, 1 mg/ml (Stability in human serum; 8 h, methanol precipitation, read-out: peptide degraded at 8 h) | stability to human plasma/serum proteases (in words) (Stability in human serum; up to 24 h) |
| --- | --- | --- | --- | --- | --- | --- | --- |
| WILEYLWKVPFDFWRGVI | Glu4-Y5, major; also recorded: Gly16-V17, major; also recorded: Trp1-I2, major; also recorded: Phe11-D12, major; also recorded: Trp7-K8, major |  |  |  |  |  |  |
